The values that follow come from patent US20240391958A1, “KEANUMYCINS AND USES THEREOF IN MEDICINE AND PLANT PROTECTION” (Leibniz-Institut für Naturstoff-Forschung und …, priority 2023, published 2024).

Data set [1] deals with Enterococcus faecalis (VRE) 1528. Nature of the data set: Disk diffusion test. Type of data set: cell-based. Conditions: 5 μg/mL in water, 50 μL per 9 mm hole, 24 h 37 °C. As to the method: (§1) A qualitative screen of different microorganisms was performed using a disk diffusion test. Each microorganism was plated on Mueller Hinton agar plates and 9 mm holes were punched out. The respective compounds were dissolved in the indicated solvent to yield solutions of specified concentrations. 50 μL of the respective solutions were placed in each hole. The plates were incubated for 24 h at 37° C. After incubation, the size of inhibition zones was determined.
(Agar diffusion results depend on both activity and mobility in agar.)

For a further data set, the system named is Bacillus subtilis. Nature of the data set: Disk diffusion test. Type of data set: cell-based. Conditions: 5 μg/mL in water, 50 μL per 9 mm hole, 24 h 37 °C. As to the method: as §1
Data set [2] deals with Pseudomonas aeruginosa SG 137. Nature of the data set: Disk diffusion test. Type of data set: cell-based. Conditions: 5 μg/mL in water, 50 μL per 9 mm hole, 24 h 37 °C. As to the method:
as §1

For another data set, the system named is Escherichia coli. Nature of the data set: Disk diffusion test. Conditions: 5 μg/mL in water, 50 μL per 9 mm hole, 24 h 37 °C. The data set is classed as cell-based. As to the method:
as §1

Data set [3] has as its system Staphylococcus aureus (MRSA) 134/94. Kind of data set: Disk diffusion test. Type of data set: cell-based. Conditions: 5 μg/mL in water, 50 μL per 9 mm hole, 24 h 37 °C. As to the method:
as §1

The test system of another data set is Mycobacterium vaccae. Nature of the data set: Disk diffusion test. Conditions: 5 μg/mL in water, 50 μL per 9 mm hole, 24 h 37 °C. The data set is classed as cell-based. As to the method:
as §1

The subject of data set [4] is Staphylococcus aureus SG 511. Kind of data set: Disk diffusion test. The data set is classed as cell-based. Conditions: 5 μg/mL in water, 50 μL per 9 mm hole, 24 h 37 °C. As to the method: as §1
Data set [5] relates to Pseudomonas aeruginosa K799/61. Nature of the data set: Disk diffusion test. Type of data set: cell-based. Conditions: 5 μg/mL in water, 50 μL per 9 mm hole, 24 h 37 °C. As to the method: as §1
The test system of the next data set is Candida albicans. Kind of data set: Disk diffusion test. The data set is classed as cell-based. Conditions: 10 μg/mL in DMSO/MeOH, 50 μL per 9 mm hole, 24 h 37 °C. As to the method:
as §1

Data set [6] relates to Sporobolomyces salmonicolor. Kind of data set: Disk diffusion test. Conditions: 10 μg/mL in DMSO/MeOH, 50 μL per 9 mm hole, 24 h 37 °C; methanol alone 10 mm. The data set is classed as cell-based. As to the method:
as §1

Another data set deals with Penicillium notatum. Nature of the data set: Disk diffusion test. Conditions: 10 μg/mL in DMSO/MeOH, 50 μL per 9 mm hole, 24 h 37 °C; methanol alone 10 mm. Type of data set: cell-based. As to the method:
as §1

The subject of data set [7] is Aspergillus fumigatus ATCC 204305. Nature of the data set: Broth dilution method (EUCAST). The data set is classed as cell-based. Conditions: ATCC204305; Aspergillus fumigatus ATCC 204305, EUCAST E.DEF 9.3.2; read-out: Result of the broth dilution method assay (MIC). As to the method: (§2) The activity assay was performed using the broth dilution method according to the EUCAST DEFINITIVE DOCUMENT E.DEF 9.3.2. B. cinerea and A. solani were incubated according to the Methods for dilution antimicrobial susceptibility tests for bacteria that grow aerobically by the NCCLS. Keanumycin A was dissolved in DMSO.

For data set [8], the system named is Fusarium proliferatum 2021-361. Kind of data set: Broth dilution method (EUCAST). Conditions: 2021361; Fusarium proliferatum 2021-361, EUCAST E.DEF 9.3.2; read-out: Result of the broth dilution method assay (MIC). Type of data set: cell-based. As to the method: as §2
In general terms: Broth dilution looks for growth in wells or tubes with falling amounts of substance.

In data set [9] the test system is Rhizopus arrhizus 2021-366. Nature of the data set: Broth dilution method (EUCAST). Type of data set: cell-based. Conditions: 2021366; Rhizopus arrhizus 2021-366, EUCAST E.DEF 9.3.2; read-out: Result of the broth dilution method assay (MIC). As to the method: as §2
The test system of the next data set is Candida auris 2021-353. Nature of the data set: Broth dilution method (EUCAST). The data set is classed as cell-based. Conditions: Candidozyma auris, 2021353; Candida auris 2021-353, EUCAST E.DEF 9.3.2; read-out: Result of the broth dilution method assay (MIC). As to the method:
as §2

Data set [10] deals with Candida glabrata 2021-359. Kind of data set: Broth dilution method (EUCAST). Type of data set: cell-based. Conditions: Nakaseomyces glabratus, 2021359; Candida glabrata 2021-359, EUCAST E.DEF 9.3.2; read-out: Result of the broth dilution method assay (MIC). As to the method:
as §2

Data set [11] concerns Candida parapsilosis ATCC 22019. Nature of the data set: Broth dilution method (EUCAST). The data set is classed as cell-based. Conditions: Lodderomyces parapsilosis, ATCC22019; Candida parapsilosis ATCC 22019, EUCAST E.DEF 9.3.2; read-out: Result of the broth dilution method assay (MIC). As to the method:
as §2

Data set [12] has as its system Scedosporium apiospermum 2016-079. Nature of the data set: Broth dilution method (EUCAST). Type of data set: cell-based. Conditions: 2016079; Scedosporium apiospermum 2016-079, EUCAST E.DEF 9.3.2; read-out: Result of the broth dilution method assay (MIC). As to the method:
as §2

Data set [13] has as its system Candida tropicalis 2021-360. Kind of data set: Broth dilution method (EUCAST). Type of data set: cell-based. Conditions: 2021360; Candida tropicalis 2021-360, EUCAST E.DEF 9.3.2; read-out: Result of the broth dilution method assay (MIC). As to the method:
as §2

Data set [14] relates to Botrytis cinerea SF011406. Kind of data set: Broth dilution method (NCCLS). Type of data set: cell-based. As to the method: as §2
In another data set the test system is C. albicans. Kind of data set: Membrane permeabilization assay using SYTOX Green. Conditions: 4 μg mL-1 in 1% DMSO. Type of data set: cell-based, Candida albicans. From the text: Only isolated cells are stained, which can be explained by the fact that the dye can also be used to distinguish dead from live cells. Scale bar=100 μm.
To finally examine if keanumycin A is a membrane-active compound, the inventors performed a membrane permeabilization assay using SYTOX Green (FIG. 6). As a cell-impermeant dye, SYTOX Green enters the cell upon loss of membrane integrity and binds to DNA, which results in fluorescently stained cells. […] Thus, the keanumycins are membrane-active compounds that disturb the structure of the fungal […].

Data set [15] is described as follows: Stability of isolated keanumycin C. Conditions: in solution or concentrated to dryness. Type of data set: physicochemical. An excerpt:
The inventors isolated keanumycin A (m/z 583.7892 [M+2H]2+ consistent with the molecular formula C49H84ClN11O19) and impure keanumycin B (m/z 575.7900 [M+2H]2+; C49H84ClN11O18), which could not be separated from an unknown metabolite (FIG. 1A). The inventors were also able to isolate keanumycin C (m/z 591.7866 [M+2H]2+; C49H84ClN11O20). […] Therefore, a detailed NMR analysis was only performed on keanumycin A. Important correlations in the ^1H, ^1H-correlation spectroscopy (COSY) experiment disclosed the presence of a 3,4-dihydroxylated linear fatty acid, which is a rare motif in NRLPs and only described for two other members of the syringomycin family (FIG. 2A). […] Saponification of keanumycin A under mild conditions led to the expected dechlorinated and linear lipopeptide 1, whose planar structure was confirmed by further HRMS2 experiments.

In the next data set the test system is Candida strains. Conditions: against Candida strains; cited from earlier work.

What is called MIC is the lowest concentration found to suppress growth. The term IC50 denotes the concentration that gives 50% inhibition.

Converted amounts (≈) assume the structure as drawn. Read-outs that look alike come from different tables or passages of the source. Where a SMILES comes first, the peptide text is derived from it. Bridges are numbered along the chain shown (N, C = ends). [ ]: non-standard residue; d: D form. The star is where a group is joined. Decanoyl(3R-OH) = CCCCCCC[C@@H](O)CC(=O)*; d(aThr) = C[C@@H](O)[C@@H](N)C(=O)O; Dab = NCC[C@H](N)C(=O)O; Dhb = C/C=C(\N)C(=O)O

`O=C(O)c1cn(C2CC2)c2cc(N3CCNCC3)c(F)cc2c1=O` [Ciprofloxacin, reference compound]: the Inhibition area diameter amounted to 16 mm in [1]; 29 mm in the data set with Bacillus subtilis; 26 mm in data set [2]; 26 mm in the data set with Escherichia coli; 0 mm in [3]; 22 mm with Mycobacterium vaccae. Besides, the Inhibition area diameter turned out to be 17 mm in data set [4] and 28 mm in [5].

In the case of `C[C@@H]1[C@H](O)[C@@H](C)/C=C/C=C/C=C/C=C/C=C/C=C/C=C/[C@H](O[C@@H]2O[C@H](C)[C@@H](O)[C@H](N)[C@@H]2O)C[C@@H]2O[C@](O)(C[C@@H](O)C[C@@H](O)[C@H](O)CC[C@@H](O)C[C@@H](O)CC(=O)O[C@H]1C)C[C@H](O)[C@H]2C(=O)O` [Amphotericin B, reference compound], the Inhibition area diameter in the data set with Candida albicans worked out at 21 mm; in [6], 18 mm; in the data set with Penicillium notatum it was 18 mm.

As for `CC[C@@H]([C@H](C)O)n1ncn(-c2ccc(N3CCN(c4ccc(OC[C@@H]5CO[C@@](Cn6cncn6)(c6ccc(F)cc6F)C5)cc4)CC3)cc2)c1=O` [Posaconazol, reference compound], the MIC was 0.125 µg/mL (≈ 0.178 µM) in data set [7]; more than 8 µg/mL in [8]; 4 µg/mL (≈ 5.71 µM) in data set [9]; 0.06 µg/mL (≈ 0.0856 µM) in the data set on Candida auris 2021-353; 0.25 µg/mL (≈ 0.357 µM) in data set [10]; 0.06 µg/mL (≈ 0.0856 µM) in data set [11]. The figures for the MIC in data set [12] and in data set [13] were more than 8 µg/mL and 0.125 µg/mL (≈ 0.178 µM), respectively.

Turning to `C/C=C(\NC(=O)[C@@H](CC(C)C)NC(=O)[C@@H](C)NC(=O)[C@H](NC(=O)[C@@H](C)NC(=O)[C@@H](CO)NC(=O)[C@H](NC(=O)[C@H](C)NC(=O)[C@@H](C)NC(=O)[C@@H](C)NC(=O)[C@H](NC(=O)[C@H](NC(=O)[C@H]1CCCN1C(=O)/C(=C/C)NC(=O)C[C@H](O)CCCCCCC)[C@H](C)CC)C(C)C)C(C)C)C(C)C)C(=O)N[C@H]1C(=O)N[C@@H](C)C(=O)N[C@@H](CCN)C(=O)N[C@H](CO)C(=O)N[C@@H](Cc2ccccc2)C(=O)O[C@@H]1C` [jessenipeptin, reference compound] ({Decanoyl(3R-OH)}-[Dhb][dP][dI][dV][dA][dA]A[dV][dS][dA][dV][dA][dL][Dhb][d(aThr)]A[Dab][dS]F; ester 15-C), the MIC in data set [14] (B. cinerea) stood at 10 µg/mL; in [14] (Botrytis cinerea, NCCLS, 22 °C, read-out: MIC) it was 5.2 µM.

On to tunicamycin [reference compound], for which the “membrane permeabilization (SYTOX Green staining)” value with C. albicans is “membrane integrity of C. albicans is not disturbed”; with C. albicans (listed as Tunicamycin), “did not cause a loss of membrane integrity”.

Consider keanumycin C, for which the stability result in data set [15] is listed as “slowly degrades in solution or when concentrated to dryness”.

Consider hassallidin D, for which the IC50 in the data set on Candida strains was 290 to 1000 nM.

Consider `C[C@@H](c1ncncc1F)[C@](O)(Cn1cncn1)c1ccc(F)cc1F` [Voriconazol, reference compound], for which the MIC in data set [7] was 0.5 µg/mL (≈ 1.43 µM); in data set [8] it was 8 µg/mL (≈ 22.9 µM); in data set [9], more than 8 µg/mL; with Candida auris 2021-353, 1 µg/mL (≈ 2.86 µM); in data set [10], 0.06 µg/mL (≈ 0.172 µM); in data set [11], 0.03 µg/mL (≈ 0.0859 µM). Further, the MIC in data set [12] and in data set [13] was 1 µg/mL (≈ 2.86 µM) each time.

Consider `OC(Cn1cncn1)(Cn1cncn1)c1ccc(F)cc1F` [Fluconazol, reference compound], for which the MIC was less than 64 µg/mL in the data set with Candida auris 2021-353, 2 µg/mL (≈ 6.53 µM) in [10], 2 µg/mL (≈ 6.53 µM) in data set [11] and 64 µg/mL (≈ 209 µM) in [13].
